pIC50: −log10 of the molar value. Values belong to the compound of their own block, whether it stands above or below them.
Target: T1, hROMK (hKir1.1) (Homo sapiens, UniProt P48048)
T1 construct: expressed in transfected cells
T1 sequence (P48048 1-391): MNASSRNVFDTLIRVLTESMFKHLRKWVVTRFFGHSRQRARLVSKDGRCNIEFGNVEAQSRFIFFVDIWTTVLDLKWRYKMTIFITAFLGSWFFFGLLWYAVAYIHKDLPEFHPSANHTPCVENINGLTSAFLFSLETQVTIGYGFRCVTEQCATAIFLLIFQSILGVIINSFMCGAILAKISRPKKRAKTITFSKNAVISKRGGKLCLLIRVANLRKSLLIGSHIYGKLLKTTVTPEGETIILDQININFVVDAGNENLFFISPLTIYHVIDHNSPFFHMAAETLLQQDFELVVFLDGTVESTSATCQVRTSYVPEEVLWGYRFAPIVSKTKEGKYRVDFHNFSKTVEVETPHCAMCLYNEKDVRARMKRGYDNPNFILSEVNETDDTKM
Experiment: Thallium Flux Assay (ROMK channel functional thallium flux assay)
Format: cell-based
Conditions: HEK293 cells stably expressing hROMK (hKir1.1); FluxOR thallium flux, FLIPR-Tetra, 30 min compound incubation; read-out: ROMK TI IC50
Method in brief: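 HEK293 cells stably expressing hROMK (hKir1.1) loaded with FluxOR dye 90 min at ambient temperature, then compound 30 min before thallium/potassium stimulant (final 3 mM Tl/0.3 mM K). ROMK-sensitive flux defined by 3 μM standard inhibitor; data as % fluorescence change.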

SMILES: Cc1c([C@@H](O)CN2CCC3(CC2)CN(c2ccc(=O)n(C)n2)C(=O)O3)ccc2c1COC2=O [Example 95, (R)-8-(2-hydroxy-2-(4-methyl-1-oxo-1,3-dihydroisobenzofuran-5-yl)ethyl)-3-(1-methyl-6-oxo-1,6-dihydropyridazin-3-yl)-1-oxa-3,8-diazaspiro[4.5]decan-2-one]
pIC50: 6.31

SMILES: O[C@@H](CN1CCC2(CC1)CCN(c1cnc(Cl)cn1)CC2)c1ccc(-n2cnnn2)nc1 [Example 135, (R)-1-(6-(1H-tetrazol-1-yl)pyridin-3-yl)-2-(9-(5-chloropyrazin-2-yl)-3,9-diazaspiro[5.5]undecan-3-yl)ethanol]
pIC50: 6.06

SMILES: Cn1nc(N2CCC3(CCN(CCc4ccc(-n5cnnn5)nn4)CC3)C2=O)ccc1=O [Example 21, 8-(2-(6-(1H-tetrazol-1-yl)pyridazin-3-yl)ethyl)-2-(1-methyl-6-oxo-1,6-dihydropyridazin-3-yl)-2,8-diazaspiro[4.5]decan-1-one]
pIC50: 6.25

SMILES: Cc1c([C@@H](O)CN2CCC3(CC2)CN(c2ccncc2)C(=O)O3)ccc2c1COC2=O [Example 86, (R)-8-(2-hydroxy-2-(4-methyl-1-oxo-1,3-dihydroisobenzofuran-5-yl)ethyl)-3-(pyridin-4-yl)-1-oxa-3,8-diazaspiro[4.5]decan-2-one]
pIC50: 6.25

SMILES: COc1cc(N2CCC3(CCN(C[C@H](O)c4ccc5c(c4C)COC5=O)CC3)C2)nc(OC)n1 [Example 10, (R)-5-(2-(2-(2,6-dimethoxypyrimidin-4-yl)-2,8-diazaspiro[4.5]decan-8-yl)-1-hydroxyethyl)-4-methylisobenzofuran-1(3H)-one]
pIC50: 6.14

SMILES: Cc1c([C@@H](O)CN2CCC3(CC2)CCN(c2nc(Cl)cs2)C3)ccc2c1COC2=O [Example 2, 5-{(1R)-2-[2-(4-chloro-1,3-thiazol-2-yl)-2,8-diazaspiro[4.5]dec-8-yl]-1-hydroxyethyl}-4-methyl-2-benzofuran-1(3H)-one]
pIC50: 6.03

SMILES: Cc1c([C@@H](O)CN2CCC3(CC2)CCN(c2nccs2)CC3)ccc2c1COC2=O [Example 137, (R)-5-(1-hydroxy-2-(9-(thiazol-2-yl)-3,9-diazaspiro[5.5]undecan-3-yl)ethyl)-4-methylisobenzofuran-1(3H)-one]
pIC50: 6.55

SMILES: Cc1c([C@@H](O)CN2CCC3(CC2)CCN(c2cnccn2)C3=O)ccc2c1COC2=O [Example 25, (R)-8-(2-hydroxy-2-(4-methyl-1-oxo-1,3-dihydroisobenzofuran-5-yl)ethyl)-2-(pyrazin-2-yl)-2,8-diazaspiro[4.5]decan-1-one]
pIC50: 6.36

SMILES: COc1cc(N2CCC3(CCN(C[C@H](O)c4ccc5c(c4C)COC5=O)CC3)C2)ccn1 [Example 12, (R)-5-(1-hydroxy-2-(2-(2-methoxypyridin-4-yl)-2,8-diazaspiro[4.5]decan-8-yl)ethyl)-4-methylisobenzofuran-1(3H)-one]
pIC50: 6.02

SMILES: Cc1c([C@@H](O)CN2CCC3(CC2)NCCN(c2ccc(=O)n(C)n2)C3=O)ccc2c1COC2=O [Example 106, (R)-9-(2-hydroxy-2-(4-methyl-1-oxo-1,3-dihydroisobenzofuran-5-yl)ethyl)-4-(1-methyl-6-oxo-1,6-dihydropyridazin-3-yl)-1,4,9-triazaspiro[5.5]undecan-5-one]
pIC50: 6.44

SMILES: Cn1nc(N2CCC3(CCN(CCc4ccc(-n5cnnn5)nc4)CC3)C2=O)ccc1=O [Example 22, 8-(2-(6-(1H-tetrazol-1-yl)pyridin-3-yl)ethyl)-2-(1-methyl-6-oxo-1,6-dihydropyridazin-3-yl)-2,8-diazaspiro[4.5]decan-1-one]
pIC50: 6.38

SMILES: COc1cc(N2CCC3(CCN(C[C@H](O)c4ccc5c(c4C)COC5=O)CC3)C2=O)cnn1 [Example 50, (R)-8-(2-hydroxy-2-(4-methyl-1-oxo-1,3-dihydroisobenzofuran-5-yl)ethyl)-2-(6-methoxypyridazin-4-yl)-2,8-diazaspiro[4.5]decan-1-one]
pIC50: 6.32

SMILES: COc1cc([C@@H](O)CN2CCC3(CC2)CCN(c2ccns2)C3=O)ncc1C#N [Example 70, (S)-6-(1-hydroxy-2-(2-(isothiazol-5-yl)-1-oxo-2,8-diazaspiro[4.5]decan-8-yl)ethyl)-4-methoxynicotinonitrile]
pIC50: 6.16

The next compounds have a higher pIC50 than those just listed; values first:

pIC50: 6.63
SMILES: Cc1c([C@@H](O)CN2CCC3(CC2)CCN(c2cnc(C(=O)O)cn2)CC3)ccc2c1COC2=O [Example 120, (R)-5-(9-(2-hydroxy-2-(4-methyl-1-oxo-1,3-dihydroisobenzofuran-5-yl)ethyl)-3,9-diazaspiro[5.5]undecan-3-yl)pyrazine-2-carboxylic acid]

pIC50: 6.75
SMILES: Cc1c([C@@H](O)CN2CCC3(CC2)CCN(c2cnn(C)c(=O)c2)C3=O)ccc2c1COC2=O [Example 49, (R)-8-(2-hydroxy-2-(4-methyl-1-oxo-1,3-dihydroisobenzofuran-5-yl)ethyl)-2-(1-methyl-6-oxo-1,6-dihydropyridazin-4-yl)-2,8-diazaspiro[4.5]decan-1-one]

pIC50: 6.80
SMILES: Cc1c([C@@H](O)CN2CCC3(CC2)CCN(c2nccnc2N)CC3)ccc2c1COC2=O [Example 122, (R)-5-(2-(9-(3-aminopyrazin-2-yl)-3,9-diazaspiro[5.5]undecan-3-yl)-1-hydroxyethyl)-4-methylisobenzofuran-1(3H)-one]

pIC50: 6.83
SMILES: Cc1c([C@@H](O)CN2CCC3(CC2)CCN(c2ccns2)C3)ccc2c1COC2=O [Example 7, (R)-5-(1-hydroxy-2-(2-(isothiazol-5-yl)-2,8-diazaspiro[4.5]decan-8-yl)ethyl)-4-methylisobenzofuran-1(3H)-one]

pIC50: 6.84
SMILES: Cc1c([C@@H](O)CN2CCC3(CCCN(c4ccc(=O)n(C)n4)C3=O)CC2)ccc2c1COC2=O [Example 29, (R)-9-(2-hydroxy-2-(4-methyl-1-oxo-1,3-dihydroisobenzofuran-5-yl)ethyl)-2-(1-methyl-6-oxo-1,6-dihydropyridazin-3-yl)-2,9-diazaspiro[5.5]undecan-1-one]

pIC50: 7.02
SMILES: Cc1c([C@@H](O)CN2CCC3(CC2)CC(=O)N(c2ccc(=O)n(C)n2)C3)ccc2c1COC2=O [Example 30, (R)-8-(2-hydroxy-2-(4-methyl-1-oxo-1,3-dihydroisobenzofuran-5-yl)ethyl)-2-(1-methyl-6-oxo-1,6-dihydropyridazin-3-yl)-2,8-diazaspiro[4.5]decan-3-one]

pIC50: 7.17
SMILES: Cc1c([C@@H](O)CN2CCC3(CC2)CCN(c2ccc(=O)n(C)n2)C3)ccc2c1COC2=O [Example 11, (R)-6-(8-(2-hydroxy-2-(4-methyl-1-oxo-1,3-dihydroisobenzofuran-5-yl)ethyl)-2,8-diazaspiro[4.5]decan-2-yl)-2-methylpyridazin-3(2H)-one]

pIC50: 7.25
SMILES: Cc1c([C@@H](O)CN2CCC3(CC2)CC(=O)N(c2ccncc2)C3)ccc2c1COC2=O [Example 79, (R)-8-(2-hydroxy-2-(4-methyl-1-oxo-1,3-dihydroisobenzofuran-5-yl)ethyl)-2-(pyridin-4-yl)-2,8-diazaspiro[4.5]decan-3-one]

pIC50: 7.43
SMILES: Cc1nsc(N2CCC3(CCN(C[C@H](O)c4ccc5c(c4C)COC5=O)CC3)C2=O)n1 [Example 71, (R)-8-(2-hydroxy-2-(4-methyl-1-oxo-1,3-dihydroisobenzofuran-5-yl)ethyl)-2-(3-methyl-1,2,4-thiadiazol-5-yl)-2,8-diazaspiro[4.5]decan-1-one]

From patent US20170275298A1, “INHIBITORS OF THE RENAL OUTER MEDULLARY POTASSIUM CHANNEL” (Merck Sharp & Dohme Corp., priority 2014, published 2017)
